Values quoted from earlier work, collected in patent US20180042922A1 (priority 2016, published 2018).

System: patients with PTSD
Conditions: RCTs

In the case of COc1cc2nc(N3CCN(C(=O)c4ccco4)CC3)nc(N)c2cc1OC [prazosin], the “nightmares in patients with PTSD” value is listed as “decrease nightmares”.
